The results in this text go back to patent US20240285780A1 (priority 2020, published 2024).

Experiment [1] has as its system neuroblastoma-derived cell line (SH-SY5Y). In kind it is cell-based.
Another experiment deals with Sprague-Dawley rats. To be noted: rat, in vivo.
Experiment [2] concerns collagen type I alpha 1 (Col1a1). In kind it is cell-based, mouse.
Another experiment deals with Fibronectin. The experiment is classed as cell-based, mouse.
For the next experiment, the system named is Elastin. In kind it is cell-based, mouse.

SMILES strings stand for the structures. Where “and” joins values, the source holds several entries; their conditions need not be identical. Identical values can stand only once. Where a SMILES comes first, the peptide text is derived from it. [ ]: non-standard residue; d: D form. The star is where a group is joined. Trolox = Cc1c(C)c2c(c(C)c1O)CCC(C)(C(=O)*)O2; Cha = N[CH](CC1CCCCC1)C(=O)O

As for `CCC(C)C(NC(=O)C(CC(C)C)NC(=O)C(CC1CCCCC1)NC(=O)C(CCCCN)NC(=O)C1(C)CCc2c(C)c(O)c(C)c(C)c2O1)C(=O)NC(CCCCN)C(=O)O` (stereo not drawn) [trolox-peptide conjugate] (Trolox-K[Cha]LIK-OH; configuration not given here), the release of acetylcholine result in experiment [1] is listed as “significantly inhibited”. In the experiment on Sprague-Dawley rats, the “DAS Score” value was 4 and 2 and 3; the “duration of the muscle relaxation effect” value was “lasted longer”. In experiment [2], the “expression level of collagen (Col1a1)” value is “significantly increased”. Also, the “expression level of fibronectin” value with Fibronectin was “significantly increased”. The “expression level of elastin” value in the experiment with Elastin is “significantly increased”.
